Common to all, as to assay type: functional
For assay [1], the system named is Pseudoperonospora cubensis. The assay can be described thus: Antifungal activity against Pseudoperonospora cubensis infected cucumber leaves assessed as disease control at 3.12 mg/l after 5 days relative to control.
Assay [2] relates to Tetranychus cinnabarinus. The assay can be described thus: Acaricidal activity against Tetranychus cinnabarinus (carmine spider mite) in kidney bean plants assessed as mortality at 20 mg/l after 48 hr relative to control.
Assay [3] has as its system Tetranychus cinnabarinus. The assay can be described thus: Acaricidal activity against Tetranychus cinnabarinus (carmine spider mite) in kidney bean plants assessed as mortality at 1.25 mg/l after 48 hr relative to control.
For assay [4], the system named is Pseudoperonospora cubensis. Briefly: Antifungal activity against Pseudoperonospora cubensis infected cucumber leaves assessed as disease control at 6.25 mg/l after 5 days relative to control.
In assay [5] the test system is Tetranychus cinnabarinus. The assay can be described thus: Acaricidal activity against Tetranychus cinnabarinus (carmine spider mite) in kidney bean plants assessed as mortality at 600 mg/l after 48 hr relative to control.
Another assay deals with Botrytis cinerea. Briefly: Antifungal activity against Botryotinia fuckeliana infected cucumber leaves assessed as disease control at 400 mg/l after 4 days relative to control.
Assay [6] deals with Tetranychus cinnabarinus. Briefly: Acaricidal activity against Tetranychus cinnabarinus (carmine spider mite) in kidney bean plants assessed as mortality at 150 mg/l after 48 hr relative to control.
The next assay deals with Pyricularia oryzae. The assay can be described thus: Antifungal activity against Magnaporthe oryzae infected 12 day old rice plant assessed as disease control at 400 mg/l after 6 days relative to control.
For assay [7], the system named is Pseudoperonospora cubensis. The assay can be described thus: Antifungal activity against Pseudoperonospora cubensis infected cucumber leaves assessed as disease control at 400 mg/l after 5 days relative to control.
The test system of assay [8] is Blumeria graminis f. sp. tritici. Briefly: Antifungal activity against Blumeria graminis f. sp. tritici infected seven-day-old wheat seedlings assessed as disease control at 1.56 mg/l after 7 days relative to control.
For assay [9] the test system is unchanged. Briefly: Antifungal activity against Blumeria graminis f. sp. tritici infected seven-day-old wheat seedlings assessed as disease control at 400 mg/l after 7 days relative to control.
The test system is the same in assay [10]. The assay can be described thus: Antifungal activity against Blumeria graminis f. sp. tritici infected seven-day-old wheat seedlings assessed as disease control at 12.5 mg/l after 7 days relative to control.
Assay [11] concerns Pseudoperonospora cubensis. The assay can be described thus: Antifungal activity against Pseudoperonospora cubensis infected cucumber leaves assessed as disease control at 25 mg/l after 5 days relative to control.
Assay [12] relates to Tetranychus cinnabarinus. The assay can be described thus: Acaricidal activity against Tetranychus cinnabarinus (carmine spider mite) in kidney bean plants assessed as mortality at 40 mg/l after 48 hr relative to control.
Assay [13] has as its system Tetranychus cinnabarinus. Briefly: Acaricidal activity against Tetranychus cinnabarinus (carmine spider mite) in kidney bean plants assessed as mortality at 2.5 mg/l after 48 hr relative to control.
For assay [14], the system named is Tetranychus cinnabarinus. Briefly: Acaricidal activity against Tetranychus cinnabarinus (carmine spider mite) in kidney bean plants assessed as mortality at 5 mg/l after 48 hr relative to control.
For assay [15], the system named is Tetranychus cinnabarinus. Briefly: Acaricidal activity against Tetranychus cinnabarinus (carmine spider mite) in kidney bean plants assessed as mortality at 10 mg/l after 48 hr relative to control.
Assay [16] has as its system Tetranychus cinnabarinus. The assay can be described thus: Acaricidal activity against Tetranychus cinnabarinus (carmine spider mite) in kidney bean plants assessed as mortality at 38 mg/l after 48 hr relative to control.

For `CO/C=C(/C(=O)OC)c1ccccc1COc1c(C)c(-c2ccc(C)cc2C)nn1C`, the Activity in assay [1] is 80%; in the assay on Tetranychus cinnabarinus [2], 100%; in the assay with Tetranychus cinnabarinus [3], 28%; in [4], 98%; in the assay with Tetranychus cinnabarinus [5], 100%; with Botrytis cinerea, 50%. The Activity in the assay with Tetranychus cinnabarinus [6] turned out to be 100%; with Pyricularia oryzae, 100%; in assay [7] it was 100%; in assay [8], 90%; in [9] it was 100%; in assay [10], 100%. In addition, the Activity in assay [11] came to 100%; in the assay with Tetranychus cinnabarinus [12], 100%; in the assay on Tetranychus cinnabarinus [13] it was 36%; in the assay with Tetranychus cinnabarinus [14] it was 85%; in the assay with Tetranychus cinnabarinus [15], 89%; with Tetranychus cinnabarinus [16], 100%.

With `CC(C)(C)c1ccc(CSc2cnn(C(C)(C)C)c(=O)c2Cl)cc1` [PYRIDABEN], the Activity is on record as 57% in the assay on Tetranychus cinnabarinus [2]; 0% in the assay with Tetranychus cinnabarinus [3]; 77% in the assay on Tetranychus cinnabarinus [12]; 12% with Tetranychus cinnabarinus [13]; 22% in the assay with Tetranychus cinnabarinus [14]; 48% in the assay on Tetranychus cinnabarinus [15].
